In brackets after ≈: the same amount, converted by molar mass. Where a SMILES comes first, the peptide text is derived from it. Where no end group is shown, it is not given here.
Tests used:
HMEC-1 cells = settings: for drop in cell viability of HMEC-1 cells: 100 µM
Experimental: The cytotoxicity of BR2GK and its derivatives were determined by hemolysis assay and MTT assay on the dermal microvascular endothelium cell line, HMEC-1 (ATCC CRL-3243).
MTT assays were conducted as outlined previously [35]. Ten thousand cells were seeded in each well of a 96-well plate. Cells were treated with different peptide concentrations for 24 h. Triton (0.1%) X-100 was used as a positive control.

[1] = tested on: Candida albicans (NCYC 1467); format: cell-based
Experimental: (§1) The antimicrobial activity of synthetic peptides was determined using the minimal inhibitory concentration (MIC) and the minimal bactericidal concentration […] performed by the microdilution method in a 96 well plate. Gram-positive bacteria, Staphylococcus aureus (NCTC 10788), methicillin-resistant Staphylococcus aureus (MRSA, NCTC 12493), Enterococcus faecalis (NCTC12697), and Gram-negative bacteria, Escherichia coli (NCTC 10418), Pseudomonas aeruginosa (ATCC 27853), Klebsiella pneumoniae (ATCC 43816) and the pathogenic yeast Candida albicans (NCYC 1467). All bacteria were cultured in MHB and C. albicans was cultured in YPD broth. Norfloxacin and amphotericin B were used as positive controls for bacteria and yeast, respectively.

[2] = tested on: Enterococcus faecalis (NCTC12697); format: cell-based
Experimental: as §1

[3] = tested on: Staphylococcus aureus (NCTC 10788); format: cell-based
Experimental: as §1

[4] = tested on: Pseudomonas aeruginosa (ATCC 27853); format: cell-based
Experimental: as §1

[5] = tested on: methicillin-resistant Staphylococcus aureus (MRSA, NCTC 12493); format: cell-based
Experimental: as §1

[6] = tested on: Escherichia coli (NCTC 10418); format: cell-based
Experimental: as §1

[7] = tested on: Klebsiella pneumoniae (ATCC 43816); format: cell-based
Experimental: as §1

Experimental for horse erythrocytes: Horse erythrocytes (TCS Biosciences Ltd., Buckingham, UK) were subjected to the hemolysis of all synthetic peptides as described previously [35]. Briefly, the erythrocytes were washed and resuspended by PBS to achieve a 4% suspension. The test peptide solutions were transferred into the aforementioned suspension and kept at a constant 37 °C for 2 h, while Triton X-100 (Sigma-Aldrich, St. Louis, MO, USA) was employed to replace the peptide solution for establishing the positive control. The supernatants after incubation were measured at 470 nm.

| Compound | cytotoxicity on HMEC-1 cells at 100 µM (HMEC-1 cells) | hemolysis of horse erythrocytes at 256 µM (horse erythrocytes) | MIC C. albicans [1] [µM] | MBC E. faecalis [2] [µM] | MIC E. faecalis [2] [µM] | MBC S. aureus [3] [µM] | MIC S. aureus [3] [µM] | MIC P. aeruginosa [4] [µM] | MBC C. albicans [1] [µM] | MBC MRSA [5] [µM] | MIC MRSA [5] [µM] | MBC P. aeruginosa [4] [µM] | MBC E. coli [6] [µM] | MIC E. coli [6] [µM] | MBC K. pneumoniae [7] [µM] | MIC K. pneumoniae [7] [µM] | drop in cell viability of HMEC-1 cells (HMEC-1 cells) |
| --- | --- | --- | --- | --- | --- | --- | --- | --- | --- | --- | --- | --- | --- | --- | --- | --- | --- |
| CC(C)C[C@H](NC(=O)[C@H](CCC(N)=O)NC(=O)[C@H](CCC(N)=O)NC(=O)[C@H](C)NC(=O)CNC(=O)[C@H](C)NC(=O)[C@H](CCCCN)NC(=O)CNC(=O)[C@@H](NC(=O)[C@H](CCC(N)=O)NC(=O)[C@H](CCCCN)NC(=O)[C@H](CC(C)C)NC(=O)[C@H](CC(C)C)NC(=O)[C@H](Cc1ccc(O)cc1)NC(=O)[C@H](CCCCN)NC(=O)[C@H](C)NC(=O)CNC(=O)[C@H](C)NC(=O)[C@H](CCCCN)NC(=O)[C@H](Cc1ccccc1)NC(=O)[C@H](CC(C)C)NC(=O)[C@H](CO)NC(=O)[C@H](CO)NC(=O)[C@H](Cc1ccccc1)NC(=O)CN)C(C)C)C(=O)N[C@@H](C)C(=O)N[C@H]1CSSC[C@@H](C(=O)O)NC(=O)[C@H](CC(N)=O)NC(=O)[C@H](CC(N)=O)NC(=O)[C@H](C)NC(=O)[C@H](C)NC(=O)[C@H](CCCCN)NC1=O [BR2GK] (HELM PEPTIDE1{G.F.S.S.L.F.K.A.G.A.K.Y.L.L.K.Q.V.G.K.A.G.A.Q.Q.L.A.C.K.A.A.N.N.C}$PEPTIDE1,PEPTIDE1,27:R3-33:R3$$$V2.0) | significant cytotoxicity | more than 40% | 256 (≈ 867 µg/mL) | 256 (≈ 867 µg/mL) | 64 (≈ 217 µg/mL) | 256 (≈ 867 µg/mL) | 64 (≈ 217 µg/mL) | > 512 | – | – | – | – | – | – | – | – | – |
| GFSSLFKAGAKYLAKQVGKAGAQQL-NH2 [[A^14]BR2GK(1-25)a] | – | – | 16 | 16 | 8 | 16 | 8 | 32 | 32 | 64 | 16 | 128 | 32 | 8 | 256 | 128 | – |
| GFSSLFKAGAKYLKKQVGKAGAQQL-NH2 [[K^14]BR2GK(1-25)a] | – | – | 64 | 64 | 16 | 32 | 16 | 16 | 128 | 128 | 64 | 64 | 32 | 8 | 256 | 128 | around 15% |
| GFSSLFKAGAKYLLKQVGKAGAQQL-NH2 [BR2GK(1-25)a] | – | around 20% | 4 | 16 | 4 | 8 | 4 | 8 | 16 | 16 | 4 | 32 | 8 | 4 | 32 | 16 | around 15% |
| GFSSLFKAGAKYLPKQVGKAGAQQL-NH2 [[P^14]BR2GK(1-25)a] | – | – | – | – | – | > 512 | 512 | > 512 | – | > 512 | > 512 | > 512 | > 512 | > 512 | > 512 | > 512 | – |
| GFSSLFKAGAKYLRKQVGKAGAQQL-NH2 [[R^14]BR2GK(1-25)a] | – | – | 64 | 32 | 16 | 32 | 16 | 16 | 128 | 128 | 64 | 32 | 16 | 8 | 256 | 128 | around 15% |
